US10117890B2, “Methods and compositions for treating pain” (Academia Sinica, priority 2012, dated 2018)

Experiments:
[1] = tested on: muscle nociceptors (ASIC3-positive muscle afferent DRG neurons expressing ISP-O); assay: Whole-cell patch-clamp recording of outward currents in muscle afferent DRG neurons; format: cell-based, mice
Procedure: The digested DRG neurons were washed with fetal calf serum (FCS)-free DMEM or DMEM containing 10% FCS during each treatment. Fully digested DRGs were triturated and plated on poly-L-lysine-coated cover slides. Cell cultures were maintained in a 5% CO2 incubator at 37° C.
Whole-cell patch-clamp recordings of muscle-afferent neurons involved use of Axopatch MultiClamp 700B (Axon Instruments). Neurons with membrane potential >−40 mV were discarded. The bridge was balanced in current-clamp recording, and the series resistance was compensated 70% in voltage-clamp recording with […] 700B compensation circuitry. All experiments were performed at room temperature (21-25° C.) and completed within 30 hr post-seeding. Unless specifically mentioned, the patch pipettes were prepared in 1-5 MΩ and filled with internal solution containing (in mM) 100 KCl, 2 Nae-ATP, 0.3 Na3-GTP, 10 EGTA, 5 MgCl2, and 40 HEPES, adjusted to pH 7.4 with KOH. Recording cells were superfused in artificial cerebrospinal fluid (ACSF) by control with gravitational force. The ACSF contained (in mM) 130 NaCl, 5 KCl, 1 MgCl2, 2 CaCl2, 10 glucose, and 20 HEPES, adjusted to pH 7.4 with NaOH. Osmolarity was adjusted to 300 mOsm. The acidic ACSF was titrated to pH 6.8 by […]. […] If not specifically mentioned, drugs listed above were from Sigma Chemical (St. Louis, Mo.).
The procedure was repeated at least 2 times to ensure consistent data. […] ACSF-containing compounds were superfused for 1 min to ensure complete replacement of previous perfusate between treatments. […] A recording pipette containing 1 mM GDP-β-S was used in GTP dialysis. The GABA-B current was induced by 100 μM Baclofen at the beginning of dialysis (0, 1 and 2 min after whole-cell patch clamp). Then, Baclofen was used to re-stimulate the dialyzed neurons after 10-min dialysis (10, 11 and 12 min after whole-cell patch clamp).

[2] = tested on: acid-induced chronic muscle pain after genistein treatment; assay: Modified acid-induced chronic muscle pain model with genistein treatment (fibromyalgia model); format: in vivo, mice
Procedure: Panel A: a diagram showing that mice were first received an intramuscular injection of genistein (a tyrosine kinase inhibitor) and an acid saline to one side of gastrocnemius muscle, and then pain behaviors were assayed by using von-Frey filament test at 4 hr (D0) and until 29 days (D29) after acid injection. Panel B: is a chart showing that the single acid injection induced long-lasting chronic hyperalgesia in mice with genistein pretreatment (open circles, n=5), but only transient hyperalgesia in mice without genistein pretreatment (filled circles, n=4).
Mice received an intramuscular acid injection in the gastrocnemius muscle (GM) containing 20 μl acid saline (pH 4.0) with or without (Sar^9, Met(O2)^11)-substance P (SP; 4, 10, or 40 μM) or 100 μM RP67580 or 200 μM XE991. Mechanical hyperalgesia was assessed by applying a 0.2-mN von Frey filament to the plantar surface of both hind paws of mice. […] Responses of the paw to mechanical stimuli were measured before injection and at 4 and 24 hr and 5 days after the first acid injection (day 0) and at 4, 24, and 72 hr and 1 week after the second acid injection (day 5). For single-injection experiments, responses to mechanical stimuli were measured before the injection, at 4 hr and at 1, 3, 5, 7, 9, 11, 13, 15 and 22 days after the injection or at 4, 24, 48 hr and 7 and 14 days after the injection. […]

ICS-induced pain = assay: Intermittent cold stress (ICS) mouse model of fibromyalgia, von Frey test; format: in vivo, mice
Procedure: Mechanical hyperalgesia was assessed by applying a 0.2 mN von Frey filament to the plantar surface of both hind paws. For each paw, the filament was applied for 5 times at 30-s intervals.
To induce fibromyalgia-like symptoms, mice were treated with intermittent cold stress, which produces long-lasting (more than 2 weeks) thermal hyperalgesia and mechanical allodynia, predominantly in females. Method: Mice were placed on stainless mesh plate in a cold room at 4° C. overnight (from 4:30 pm to 10:00 am), followed by intermittent cold stress with environment temperatures alternating between 24 and 4° C. every 30 min, from 10:00 am to 4:30 pm. These procedures were repeated twice. On day 3, the mice were adapted to 24 C for 1 h before behavioral testing.
The second fibromyalgia model is developed by Ueda's group, in which mice were treated with intermittent cold stress for 2 days (Nishiyori & Ueda, 2008). Mice treated with intermittent cold stress will develop long-lasting (>2 weeks) mechanical and thermal hyperalgesia. Analgesic effect of T1-11 was tested in these mice 5 day after intermittent cold stress (ICS). […] Moreover, we found T1-11 and substance P have synergistic effect in treating the ICS-induced pain.

Which results are given for `OC[C@H]1O[C@@H](n2cnc3c(NCc4ccc(O)cc4)ncnc32)[C@H](O)[C@@H]1O` [T1-11, N^6-(4-hydroxybenzyl)adenosine]?
IT1-11 in A2A−/− muscle afferent DRG neurons ([1]; A2A−/− neurons): not changed; EC50 ([1]; Mus musculus, DRG neuron, peak whole-cell current, 1, 3, 10, 30 and 100 nM, n=11, read-out: EC50 of T1-11-induced outward current (IT1-11)): 1.3 nM; induction of outward current in ASIC3/SP-expressing muscle DRG neurons ([1]; SP-sensitive muscle nociceptors): elicited a slow inactivating outward current; effect on M-type potassium current ([1]; voltage shift from −50 mV to −20 mV, muscle afferent neurons expressing ISP-O): enhanced M current; analgesic effect on mice that have developed chronic muscle pain ([2]; T1-11 75-150 μg/kg (i.p.)): dose-dependent analgesic effect; hyperalgesia after genistein pretreatment and single acid injection, co-injection of acid and T1-11 ([2]; co-injection with acid, n=6, D0 to D29): only showed the transient hyperalgesia; analgesic effect on ICS-treated mice, T1-11 alone (ICS-induced pain; T1-11 3 μg/kg alone): did not show analgesic effect; analgesic effect on ICS-treated mice, combination (ICS-induced pain; T1-11 3 μg/kg combined with 0.6 mg/kg SM-substance P): showed analgesic effect; analgesic effect on mice treated with ICS (ICS-induced pain; T1-11 30 ug/kg): had analgesic effect; therapeutic dose to treat the ICS-induced pain (ICS-induced pain; i.p., 5 day after ICS): 0.03 mg/kg
